These results are taken from paper PMC10253817, “Design, Pharmacological Characterization, and Molecular Docking of Minimalist Peptidomimetic Antagonists of α4β1 Integrin” (International Journal of Molecular Sciences, 2023).

*1 amine or outer side, *2 acyl side, *3 side chain or, on linkers, in order; H or OH if unused. Where a SMILES comes first, the peptide text is derived from it. [ ]: non-standard residue; d: D form. The star is where a group is joined. X1 = O=C(Cc1ccc(N[*:1])cc1)[*:2]; NH(2-Me-phenyl) = Cc1ccccc1N*; CO = O=C([*:1])[*:2] Bounds are passed on as bounds.

Details of data set [1]: method as in PMID 17523052, PMID 11682211. The conditions noted are these: plasma; heparinized blood; homogenates of rat liver, lungs, and intestines; cited from earlier work.
Data set [2] relates to antigen-induced airway hyper-responsiveness. Further details: method as in PMID 10934094. The conditions noted are these: allergic sheep; cited from earlier work.
On the set-up of data set [3]: method as in PMID 12086484. Conditions: cited from earlier work.
The target of data set [4] is T1, α4β1 integrin (Homo sapiens, UniProt P05556+P13612).
T1 construct: Jurkat E6.1 cell line, which endogenously expresses α4β1 integrin; host or cells: Jurkat E6.1
Kind of data set: α4β1 integrin-mediated Jurkat E6.1 cell adhesion to FN. The class given is cell-based. Conditions: Jurkat E6.1 cell adhesion to FN (10 μg/mL); antag. = reduced cell adhesion; mean ± SD. On the procedure:
To investigate the ability of the new peptides to modulate integrin-mediated cell adhesion, we employed cell adhesion assays using a Jurkat E6.1 cell line, which endogenously expresses α4β1 integrin and the natural ligand FN. […] On the contrary, ligands able to increase cell adhesion are defined as agonists.
(§1) The assays were performed as previously described. Briefly, regarding adhesion assays on Jurkat E6.1 or HL-60 cells, black 96-well plates (Corning Costar) were coated overnight at 4 °C with FN or Fg (10 μg/mL) or VCAM-1 (2 μg/mL) in order to investigate α4β1 integrin-mediated cell adhesion. To avoid any kind of unspecific binding, plates were incubated with 100 μL/well of blocking solution (1% BSA in HBSS) for 30 min at 37 °C. Cells were counted, stained with the CellTracker green CMFDA (12.5 μM, 30 min at 37 °C, Life Technologies Italia, Milan, Italy) and after three washes, were preincubated with increasing concentrations of new compounds (10^−10–10^−4 M) or with the vehicle (methanol) for 30 min at 37 °C.
(§2) Then, cells were plated (500,000/well) on coated wells and incubated for 30 min at 37 °C. Afterwards nonadherent cells were removed via washing with a blocking solution, and the remaining adhered cells were lysed with 0.5% Triton X-100 in PBS (30 min at 4 °C). Green fluorescence was measured (Ex485 nm/Em535 nm) using an EnSpire Multimode Plate Reader (PerkinElmer, Waltham, MA, USA).
(§3) In both types of adhesion assay, the number of adherent cells was determined via comparison with a standard curve made in the same plate. Experiments were carried out in quadruplicate and repeated at least three times. Data analysis and EC50 or IC50 values were calculated using GraphPad Prism 9.5.1 (GraphPad Software, San Diego, CA, USA).

On the set-up of data set [5]: method as in PMID 30051467, PMID 33584300. Conditions: cited from earlier work.
The target of data set [6] is T1, α4β1 integrin. Kind of data set: LDV-FITC competitive binding on intact Jurkat E6.1 cells. The procedure: The assays were performed as previously described with the following modifications. Jurkat E6.1 cells were resuspended (50,000 cells/sample) in 0.1% BSA in a HEPES buffer (NaCl 110 mM; KCl 10 mM; Glucose 10 mM; MgCl2 1 mM; CaCl2 1.5 mM; HEPES 30 mM; pH 7.4) and pre-incubated with different concentrations (10^−11–10^−5 M) of compounds for 20–30 min at RT. Then, LDV-FITC (5 µM) was added to the cells, and they were incubated in the dark for an additional 30 min at RT. At the end of the incubation with LDV-FITC, cells were washed with 0.1% BSA in a HEPES buffer. The FITC fluorescence intensity was measured using an EnSpire Multimode Plate Reader (PerkinElmer, Waltham, MA, USA). The data were plotted as LDV-FITC specific bindings versus the concentration of the competitor, and the data were fitted to a one-site competition equation; the equilibrium dissociation constant Ki was calculated from the IC50 using the Cheng–Prusoff equation.

The target of the next data set is T2, αMβ2 integrin (Homo sapiens, UniProt P05107+P11215).
T2 construct: HL60 cells, mainly expressing the leukocyte integrin αMβ2; host or cells: HL60 (PMA-treated)
As to the kind of experiment: αMβ2 integrin-mediated HL60 cell adhesion to Fg. The class given is cell-based. Conditions: HL60 cell adhesion to Fg (10 μg/mL); antagonists; mean ± SD. The procedure: (§4) To this purpose, the ability of the best peptidomimetics to modulate cell adhesion mediated by integrins other than α4β1 was evaluated in HL60 cells, mainly expressing the leukocyte integrin αMβ2, and on K562 cells, mainly expressing α5β1, which shares a β1 subunit with the heterodimer α4β1. […] In contrast, 13 was a moderate promoter of cell adhesion mediated by αMβ2 integrin, behaving as an agonist. Regarding α5β1 integrin, none of the peptidomimetics employed were able to modulate K562 cell adhesion, thus being shown to be completely ineffective toward α5β1 integrin. The reference compound DS-70 was ineffective toward both αMβ2 and α5β1 integrins under the same experimental conditions (Table 3).
as §1, §2, §3
Cell culture. Jurkat E6.1 (expressing both α4β1 and αLβ2 integrin), K562 (expressing α5β1 integrin) and HL60 (expressing α Mβ2 integrin) cell lines were purchased from ATCC (Rockville, MD, USA); these cells were routinely cultured in RPMI-1640 (Life Technologies) supplemented with 1% glutamine and 10% fetal bovine serum (FBS). Cells were grown at 37 °C under 5% CO 2 humidified atmosphere. […]

Data set [7] deals with T1, α4β1 integrin. Kind of data set: α4β1 integrin-mediated Jurkat cell adhesion to VCAM-1. The conditions noted are these: Jurkat cell adhesion to VCAM-1 (2 μg/mL); antag. = reduced cell adhesion; mean ± SD. The class given is cell-based. The procedure: as §4, §1, §2, §3
A further data set deals with T3, α5β1 integrin (Homo sapiens, UniProt P05556+P08648).
T3 construct: K562 cells, mainly expressing α5β1, which shares a β1 subunit with the heterodimer α4β1; host or cells: K562 (PMA-treated)
Kind of data set: α5β1 integrin-mediated K562 cell adhesion to FN. The data set is classed as cell-based. Conditions: K562 cell adhesion to FN (10 μg/mL). The procedure: as §4
For adhesion assays mediated by α5β1 integrin, K562 cells were pre-treated with PMA (64.85 nM, Merck Life Science, Milan, Italy) for 48 h to enhance α5β1 integrin expression. 96-well plates were coated via passive adsorption with FN (10 μg/mL) overnight at 4 °C; then, the following day, plates were blocked by adding 100 μL/well of a blocking solution (1% BSA in PBS) and incubated for 1 h at 37 °C. K562 cells were counted and preincubated with various concentrations (10^−10–10^−4 M) of the peptides or with the vehicle for 30 min at RT. Then, K562 cells were plated (50,000 cells/well) and incubated at RT for 1 h. The wells were then washed three times with 1% BSA in PBS, and 50 μL of hexosaminidase substrate was added and incubated at RT for 1 h. After the addition of 100 μL of stopping solution (50 mM glycine and 5 mM EDTA, pH 10.4), plates were read at 405 nm in an EnSpire Multimode Plate Reader.
as §3
Cell culture. Jurkat E6.1 (expressing both α4β1 and αLβ2 integrin), K562 (expressing α5β1 integrin) and HL60 (expressing α Mβ2 integrin) cell lines were purchased from ATCC (Rockville, MD, USA); these cells were routinely cultured in RPMI-1640 (Life Technologies) supplemented with 1% glutamine and 10% fetal bovine serum (FBS). Cells were grown at 37 °C under 5% CO 2 humidified atmosphere. 40 h before the adhesion assays, K562 and HL60 cells were treated with 25 nM or 40 nM phorbol 12 -myristate 13-acetate (PMA; Sigma-Aldrich), respectively, to induced cell differentiation and to increased α5β1 or αMβ2 integrin expression on cell surface (Baiula et al., 2016).
Cell adhesion assays . Concentration-response curves, obtained from cell adhesion assays performed in […]
Figure S1. […]

Data set [8] addresses T1, α4β1 integrin. As to the kind of experiment: HUTS-21 monoclonal antibody binding (α4β1 integrin conformation), flow cytometry. The data set is classed as cell-based. Conditions: Jurkat E6.1 cells; compounds 1–100 nM; FN 10 µg/mL; versus vehicle. The text has this:
Integrin functions are regulated by a number of conformational changes in the protein itself. […] Conformational changes can be evaluated by using conformationally sensitive antibodies which specifically recognize epitopes exposed only in a defined structural conformation. To better depict peptidomimetics–α4β1 integrin interactions, we employed PE-conjugated HUTS-21 mAb that recognizes an epitope mapped to the hybrid domain of the β1 subunit.
Conversely, antagonists 3, 8, and 13, although binding to α4β1 integrin as previously shown, were not able to induce any conformational rearrangement, showing very low binding of HUTS-21 mAb.
Flow cytometry analysis was performed as previously described, with the following modifications. Jurkat E6.1 cells were resuspended in 1% BSA in HBSS (50,000 cells/sample); then, FN (10 μg/mL) and two concentrations of the best peptidomimetics (100–1 nM) were added to the cells for 30 min. Thereafter, phycoerythrin (PE)-conjugated, conformational-sensitive HUTS-21 mAb (PE mouse anti-human CD29 antibody, Becton Dickinson Italia, Milan, Italy) (20 μL/sample) was added for 45 min at room temperature; after two washes, Jurkat E6.1 cells were suspended in PBS, and 10,000 cells/sample were acquired in a Guava®EasyCyte Flow Cytometer. The data are presented as the mean fluorescence intensity (MFI). Data were normalized with the relative fluorescence for nonspecific binding evaluated by exposing the cells to an isotype control mAb set to 0.

T1 sequence (P13612 34-1032): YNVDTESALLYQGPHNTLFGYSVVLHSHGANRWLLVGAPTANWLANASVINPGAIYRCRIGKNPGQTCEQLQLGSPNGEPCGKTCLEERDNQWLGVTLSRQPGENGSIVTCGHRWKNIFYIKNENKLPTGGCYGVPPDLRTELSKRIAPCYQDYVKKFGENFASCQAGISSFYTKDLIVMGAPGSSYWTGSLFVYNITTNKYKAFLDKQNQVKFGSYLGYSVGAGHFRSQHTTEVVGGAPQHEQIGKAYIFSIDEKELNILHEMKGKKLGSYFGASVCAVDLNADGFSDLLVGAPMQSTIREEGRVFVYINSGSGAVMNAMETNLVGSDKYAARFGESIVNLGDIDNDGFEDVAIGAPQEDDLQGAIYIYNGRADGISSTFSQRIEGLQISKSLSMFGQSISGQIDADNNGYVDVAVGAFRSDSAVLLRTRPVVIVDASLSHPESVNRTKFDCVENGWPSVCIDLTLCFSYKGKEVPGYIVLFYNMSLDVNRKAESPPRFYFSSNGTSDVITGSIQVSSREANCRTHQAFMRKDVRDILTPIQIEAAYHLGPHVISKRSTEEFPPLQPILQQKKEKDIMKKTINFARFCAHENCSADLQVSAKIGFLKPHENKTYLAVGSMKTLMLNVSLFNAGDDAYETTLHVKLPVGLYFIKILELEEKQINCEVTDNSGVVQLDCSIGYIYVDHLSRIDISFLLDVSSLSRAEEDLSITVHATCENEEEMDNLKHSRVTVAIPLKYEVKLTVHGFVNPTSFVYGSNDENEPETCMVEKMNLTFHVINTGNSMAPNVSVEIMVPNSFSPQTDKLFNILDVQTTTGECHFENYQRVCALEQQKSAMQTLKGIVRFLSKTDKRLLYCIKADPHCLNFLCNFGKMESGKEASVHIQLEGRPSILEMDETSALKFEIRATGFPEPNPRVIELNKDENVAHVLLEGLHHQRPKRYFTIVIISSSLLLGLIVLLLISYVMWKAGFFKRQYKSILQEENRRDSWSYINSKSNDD
T1 sequence (P05556 21-798): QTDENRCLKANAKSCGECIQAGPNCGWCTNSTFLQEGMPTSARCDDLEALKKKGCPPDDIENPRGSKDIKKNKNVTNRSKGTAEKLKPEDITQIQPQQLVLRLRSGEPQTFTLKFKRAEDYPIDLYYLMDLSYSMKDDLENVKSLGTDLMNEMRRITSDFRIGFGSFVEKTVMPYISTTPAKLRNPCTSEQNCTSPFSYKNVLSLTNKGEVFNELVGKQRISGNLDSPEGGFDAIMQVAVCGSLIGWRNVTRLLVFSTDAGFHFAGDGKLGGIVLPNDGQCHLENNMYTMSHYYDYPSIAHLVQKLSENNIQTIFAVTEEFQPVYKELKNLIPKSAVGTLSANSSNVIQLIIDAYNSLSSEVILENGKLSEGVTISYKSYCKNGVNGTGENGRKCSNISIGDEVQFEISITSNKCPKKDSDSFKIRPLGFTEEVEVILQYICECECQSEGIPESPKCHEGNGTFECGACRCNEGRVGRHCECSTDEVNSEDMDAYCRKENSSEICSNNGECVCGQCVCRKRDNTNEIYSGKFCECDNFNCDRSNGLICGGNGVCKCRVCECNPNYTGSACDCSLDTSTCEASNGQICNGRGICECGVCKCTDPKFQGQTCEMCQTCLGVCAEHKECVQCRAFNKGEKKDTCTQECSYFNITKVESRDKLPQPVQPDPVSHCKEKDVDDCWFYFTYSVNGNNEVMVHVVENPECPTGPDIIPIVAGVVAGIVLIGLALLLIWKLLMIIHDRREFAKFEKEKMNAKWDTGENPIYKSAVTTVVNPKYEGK
T3 sequence (P08648 42-894 limits assumed): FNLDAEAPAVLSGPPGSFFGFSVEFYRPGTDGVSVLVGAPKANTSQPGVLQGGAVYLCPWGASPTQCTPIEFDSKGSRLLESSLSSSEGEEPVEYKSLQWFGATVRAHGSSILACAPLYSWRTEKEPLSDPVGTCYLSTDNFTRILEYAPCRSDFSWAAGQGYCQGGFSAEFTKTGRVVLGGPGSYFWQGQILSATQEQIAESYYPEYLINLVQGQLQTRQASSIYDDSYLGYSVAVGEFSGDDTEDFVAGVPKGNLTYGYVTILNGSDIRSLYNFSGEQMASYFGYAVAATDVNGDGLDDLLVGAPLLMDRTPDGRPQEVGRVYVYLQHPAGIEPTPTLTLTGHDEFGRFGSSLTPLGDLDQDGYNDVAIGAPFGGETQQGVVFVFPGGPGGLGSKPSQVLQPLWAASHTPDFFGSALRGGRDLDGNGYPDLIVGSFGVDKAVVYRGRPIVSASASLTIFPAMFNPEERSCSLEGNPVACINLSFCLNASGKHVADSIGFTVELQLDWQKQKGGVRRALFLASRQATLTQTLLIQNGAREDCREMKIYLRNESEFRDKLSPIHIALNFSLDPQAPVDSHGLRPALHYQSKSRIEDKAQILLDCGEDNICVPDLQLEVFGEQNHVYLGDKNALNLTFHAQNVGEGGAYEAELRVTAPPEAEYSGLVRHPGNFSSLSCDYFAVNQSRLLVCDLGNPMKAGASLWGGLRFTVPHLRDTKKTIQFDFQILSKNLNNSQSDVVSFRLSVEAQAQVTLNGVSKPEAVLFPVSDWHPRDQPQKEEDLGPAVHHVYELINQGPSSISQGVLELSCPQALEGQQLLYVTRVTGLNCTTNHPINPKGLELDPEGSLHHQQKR
T3 sequence (P08648 895-1049 partner limits assumed): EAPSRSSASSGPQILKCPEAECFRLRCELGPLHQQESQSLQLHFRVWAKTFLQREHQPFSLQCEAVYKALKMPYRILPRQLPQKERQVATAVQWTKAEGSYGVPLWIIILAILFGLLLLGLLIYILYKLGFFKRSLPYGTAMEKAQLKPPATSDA
T3 sequence (P05556 21-798): as the sequence (P05556 21-798) above
T2 sequence (P05107 23-769, other chains not shown): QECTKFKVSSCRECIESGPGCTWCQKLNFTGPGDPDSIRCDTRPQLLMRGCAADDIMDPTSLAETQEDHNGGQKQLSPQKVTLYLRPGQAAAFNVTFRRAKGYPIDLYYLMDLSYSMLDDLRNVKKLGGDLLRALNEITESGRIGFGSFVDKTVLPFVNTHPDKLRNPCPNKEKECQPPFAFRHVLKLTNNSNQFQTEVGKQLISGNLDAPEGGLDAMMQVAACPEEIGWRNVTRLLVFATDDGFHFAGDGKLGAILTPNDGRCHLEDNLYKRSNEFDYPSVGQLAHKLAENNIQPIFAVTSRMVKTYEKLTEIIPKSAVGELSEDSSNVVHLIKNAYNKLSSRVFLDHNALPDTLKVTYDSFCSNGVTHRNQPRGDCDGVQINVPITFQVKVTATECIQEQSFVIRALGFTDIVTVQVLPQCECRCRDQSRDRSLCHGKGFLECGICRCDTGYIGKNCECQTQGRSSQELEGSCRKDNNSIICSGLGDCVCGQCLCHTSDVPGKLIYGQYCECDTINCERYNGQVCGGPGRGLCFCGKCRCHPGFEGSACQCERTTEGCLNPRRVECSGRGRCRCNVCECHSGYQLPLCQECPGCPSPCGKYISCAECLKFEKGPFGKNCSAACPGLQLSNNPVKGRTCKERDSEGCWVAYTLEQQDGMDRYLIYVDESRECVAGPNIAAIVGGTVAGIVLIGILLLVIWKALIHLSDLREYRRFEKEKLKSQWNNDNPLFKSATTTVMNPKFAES

For `Cc1ccccc1NC(=O)Nc1ccc(CC(=O)N[C@@H](CC(C)C)C(=O)N[C@@H](CC(=O)O)C(=O)N[C@H](C(=O)N2CCC[C@H]2C(=O)O)C(C)C)cc1` [BIO1211, MPUPA-Leu-Asp-Val-ProOH] ({NH(2-Me-phenyl)-CO}-[X1]LDVP-OH), the “stability in a biological environment” value in data set [1] is reported as “scarcely stable”. In data set [2], the antigen-induced airway hyper-responsiveness entry is “capable of inhibiting”. For the same molecule, in [3], the clearance in vivo result is given as “rapid clearance”. In general, IC50 refers to the concentration needed to halve the response being measured. A higher IC50 goes with weaker potency in that assay. On to `Cc1ccccc1NC(=O)Nc1ccc(CNC(=O)[C@H]2CCN(C(=O)CC(=O)O)C2)cc1` [DS-23, reference compound], for which inhibition against α4β1 integrin [4] was half-maximal at 0.051 µM (IC50). The Ki is a dissociation constant, usually derived from enzyme kinetics or from competition with a known ligand. For the molecule `Cc1ccccc1NC(=O)Nc1ccc(CC(=O)N2CC[C@H](C(=O)NCC(=O)O)C2)cc1` [DS-70, MPUPA-β^2Pro-Gly, reference compound], the half-inhibitory concentration (IC50) against α4β1 integrin [4] is 0.0043 µM; against αMβ2 integrin, greater than 5 µM; against α4β1 integrin [7], 0.00504 µM; at α5β1 integrin it was greater than 5 µM. For the same molecule, the “stability in mouse serum” value in [5] was “noteworthy stability”. At α4β1 integrin [6] (intact Jurkat E6.1 cells vs. LDV-FITC, mean ± SD), this molecule came in with a Ki of 0.00094 ± 0.00032 µM. In the case of `Cc1ccccc1NC(=O)Nc1ccc(CC(=O)NC[C@H](C)C(=O)NCC(=O)O)cc1` [compound 1], the “receptor affinity (in words)” value on α4β1 integrin [6] (α4β1 integrin) is on record as “complete lack of receptor affinity”.

`Cc1ccccc1NC(=O)Nc1ccc(CNC(=O)[C@H](C)CNC(=O)CC(=O)O)cc1` [compound 9]: the IC50 at α4β1 integrin [4] was greater than 5 µM. Same read-out and setting: under `Cc1ccccc1NC(=O)Nc1ccc(CNC(=O)[C@@H](C)CNC(=O)CC(=O)O)cc1` [compound 10] stands greater than 5 µM; under `CC(=O)N[C@@H](CNC(=O)CC(=O)O)C(=O)NCc1ccc(NC(=O)Nc2ccccc2C)cc1` [compound 11], greater than 5 µM. On the same count and under the same terms, the same measure for `CC(=O)N[C@H](CNC(=O)CC(=O)O)C(=O)NCc1ccc(NC(=O)Nc2ccccc2C)cc1` [compound 12]: greater than 5 µM; for `Cc1ccccc1NC(=O)Nc1ccc(CNC(=O)C[C@H](C)NC(=O)CC(=O)O)cc1` [compound 14]: greater than 5 µM; for `CCCNC(=O)[C@H](CC(=O)NCc1ccc(NC(=O)Nc2ccccc2C)cc1)NC(=O)CC(=O)O` [compound 15]: greater than 5 µM. On the same count and under the same terms, under `CCCNC(=O)[C@@H](CC(=O)NCc1ccc(NC(=O)Nc2ccccc2C)cc1)NC(=O)CC(=O)O` [compound 16] stands greater than 5 µM. As for fibronectin [FN], the “binding of HUTS-21 mAb (MFI)” value on α4β1 integrin [8] is listed as “increased binding of the HUTS-21 mAb”.
